Measured values from patent US20240108006A1, “PESTICIDALLY ACTIVE HETEROAROMATIC COMPOUNDS” (SYNGENTA CROP PROTECTION AG, priority 2021, published 2024).

Assays:
[1] = test system: Frankliniella occidentalis; assay: Example B4: Frankliniella occidentalis (western flower thrips), feeding/contact activity; type: in vivo; settings: 168 h, application rate of 200 ppm, 7 days after infestation
Procedure: Example B4: Frankliniella occidentalis (Western Flower Thrips):Feeding/Contact Activity
Sunflower leaf discs were placed on agar in 24-well microtiter plates and sprayed with aqueous test solutions prepared from 10,000 DMSO stock solutions. After drying the leaf discs were infested with a Frankliniella population of mixed ages. The samples were assessed for mortality 7 days after infestation.

Myzus persicae [2] = assay: Example B5: Myzus persicae (green peach aphid), feeding/contact activity; type: in vivo; settings: 144 h, application rate of 200 ppm, 6 days after infestation
Procedure: Example B5: Myzus persicae (Green Peach Aphid):Feeding/Contact Activity
Sunflower leaf discs were placed onto agar in a 24-well microtiter plate and sprayed with aqueous test solutions prepared from 10,000 ppm DMSO stock solutions. After drying, the leaf discs were infested with an aphid population of mixed ages. The samples were assessed for mortality 6 days after infestation.

Euschistus heros = assay: Example B3: Euschistus heros (neotropical brown stink bug), soybean leaves, N2 nymphs; type: in vivo; settings: 120 h, application rate of 200 ppm, 5 days after infestation, read-out: control in at least one of the two categories (mortality or growth inhibition)
Procedure: Example B3: Euschistus heros (Neotropical Brown Stink Bug)
Soybean leaves on agar in 24-well microtiter plates were sprayed with aqueous test solutions prepared from 10,000 ppm DMSO stock solutions. After drying the leaves were infested with N2 nymphs. The samples were assessed for mortality and growth inhibition in comparison to untreated samples 5 days after infestation.
The following compounds gave an effect of at least 80% control in at least one of the two categories (mortality or growth inhibition) at an application rate of 200 ppm: […]

Myzus persicae [3] = assay: Example B6: Myzus persicae (green peach aphid), systemic activity, pea seedlings; type: in vivo; settings: 144 h, test rate of 24 ppm, 6 days after placing seedlings into test solutions
Procedure: Example B6: Myzus persicae (Green Peach Aphid). Systemic Activity
Roots of pea seedlings infested with an aphid population of mixed ages were placed directly into aqueous test solutions prepared from 10,000 DMSO stock solutions. The samples were assessed for mortality 6 days after placing seedlings into test solutions.

Spodoptera littoralis = assay: Example B9: Spodoptera littoralis (Egyptian cotton leaf worm), cotton leaf discs, L1 larvae; type: in vivo; settings: foliar, 72 h, application rate of 200 ppm, 3 days after infestation, read-out: control in at least one of the three categories (mortality, anti-feedant effect, or growth inhibition)
How it was run: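 Five L1 larvae placed on sprayed, dried cotton leaf discs; spray solutions aqueous, from 10,000 ppm DMSO stocks. Control given when mortality, anti-feedant effect or growth inhibition exceeds untreated samples at 3 days.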

Myzus persicae [4] = assay: Example B7: Myzus persicae (green peach aphid), intrinsic activity, sucrose solution 24-well; type: in vivo; settings: 120 h, application rate of 12.5 ppm, 5 days after infestation, read-out: control (mortality)
How it was run: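 Compounds from 10,000 ppm DMSO stocks were mixed into sucrose solution in wells at a rate of 12.5 ppm. Aphid-infested pea seedlings were placed on a Parafilm membrane over the solution, so aphids fed through it. Mortality was scored 5 days after infestation.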

Chilo suppressalis = assay: Example B1: Chilo suppressalis (striped rice stemborer), artificial diet, L2 larvae; type: in vivo; settings: 144 h, application rate of 200 ppm, 6 days after infestation, read-out: control in at least one of the three categories (mortality, anti-feedant effect, or growth inhibition)
How it was run: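 L2 larvae (6-8 per well) were placed on dried artificial diet that had been dosed with aqueous dilutions of 10,000 ppm DMSO stock solutions. After 6 days, control was credited if mortality, antifeedant effect or growth inhibition was higher than in untreated samples.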

Diabrotica balteata = assay: Example B2: Diabrotica balteata (corn root worm), maize sprouts, L2 larvae; type: in vivo; settings: 96 h, application rate of 200 ppm, 4 days after infestation, read-out: control in at least one of the two categories (mortality or growth inhibition)
How it was run: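 Maize sprouts on agar sprayed with aqueous test solutions made from 10,000 ppm DMSO stocks, dried, then infested with 6 to 10 L2 larvae per well. Mortality and growth inhibition assessed versus untreated samples 4 days after infestation; application rate 200 ppm.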

Plutella xylostella = assay: Example B8: Plutella xylostella (diamond back moth), artificial diet 24-well, eggs; type: in vivo; settings: 192 h, application rate of 200 ppm, 8 days after infestation, read-out: effect in at least one of the two categories (mortality or growth inhibition)
How it was run: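 Plutella eggs placed onto dried, compound-treated artificial diet, the aqueous test solutions diluted from 10,000 ppm DMSO stocks. Eight days post-infestation, larvae rated for mortality and growth inhibition relative to untreated controls.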

SMILES	percent control (mortality or growth inhibition) at 200 ppm (Euschistus heros)	percent control (mortality, anti-feedant effect or growth inhibition) at 200 ppm (Spodoptera littoralis)	mortality at 12.5 ppm (Myzus persicae [4])	percent control (mortality, anti-feedant effect or growth inhibition) at 200 ppm (Chilo suppressalis)	melting point	percent effect (mortality or growth inhibition) at 200 ppm (Plutella xylostella)	other results
C[C@H](NC(=O)Nc1cc(OCc2ccc(Cl)cn2)c(Cl)cc1Cl)c1ncnn1-c1ncccn1 [Example P142, 1-[2,4-dichloro-5-[(5-chloro-2-pyridyl)methoxy]phenyl]-3-[(1S)-1-(2-pyrimidin-2-yl-1,2,4-triazol-3-yl)ethyl]urea]	–	–	–	–	–	–	mortality at 200 ppm [1]: ≥ 80%
COC(=O)c1cc(Cl)c(Cl)cc1NC(=O)N[C@@H](C)c1ncnn1-c1ncccn1 [Example P199, methyl 4,5-dichloro-2-[[(1S)-1-(2-pyrimidin-2-yl-1,2,4-triazol-3-yl)ethyl]carbamoylamino]benzoate]	–	–	–	–	–	–	mortality at 200 ppm [1]: ≥ 80%
COc1cc(C(F)(F)F)ncc1NC(=O)N[C@@H](C)c1ncnn1-c1ncccn1 [Example P348, 1-[4-methoxy-6-(trifluoromethyl)-3-pyridyl]-3-[(1S)-1-(2-pyrimidin-2-yl-1,2,4-triazol-3-yl)ethyl]urea]	≥ 80%	≥ 80%	≥ 80%	≥ 80%	–	–	mortality at 200 ppm (Myzus persicae [2]): ≥ 80%; mortality at 24 ppm (Myzus persicae [3]): ≥ 80%
Cc1cc(C(F)(F)F)ncc1NC(=O)N[C@@H](C)c1ncnn1-c1ncccn1 [Example P328, 1-[4-methyl-6-(trifluoromethyl)-3-pyridyl]-3-[(1S)-1-(2-pyrimidin-2-yl-1,2,4-triazol-3-yl)ethyl]urea]	≥ 80%	–	≥ 80%	≥ 80%	–	–	mortality at 200 ppm (Myzus persicae [2]): ≥ 80%
C[C@H](NC(=O)Nc1cc(Cl)c(Cl)cc1I)c1ncnn1-c1ncccn1 (stereo in doubt)	–	–	–	–	236 to 249 °C	–	–
C[C@H](NC(=O)N1CCc2cc(C(F)(F)F)ncc21)c1ncnn1-c1ncccn1 [Example P172, N-[(1S)-1-(2-pyrimidin-2-yl-1,2,4-triazol-3-yl)ethyl]-5-(trifluoromethyl)-2,3-dihydropyrrolo[2,3-c]pyridine-1-carboxamide]	≥ 80%	≥ 80%	≥ 80%	≥ 80%	–	≥ 80%	mortality at 200 ppm (Myzus persicae [2]): ≥ 80%; mortality at 24 ppm (Myzus persicae [3]): ≥ 80%; percent control (mortality or growth inhibition) at 200 ppm (Diabrotica balteata): ≥ 80%
C[C@H](NC(=O)Nc1cnc(C(F)(F)F)cc1Br)c1ncnn1-c1ncccn1 [Example P280, 1-[4-bromo-6-(trifluoromethyl)-3-pyridyl]-3-[(1S)-1-(2-pyrimidin-2-yl-1,2,4-triazol-3-yl)ethyl]urea]	≥ 80%	≥ 80%	≥ 80%	≥ 80%	–	≥ 80%	mortality at 200 ppm [1]: ≥ 80%; percent control (mortality or growth inhibition) at 200 ppm (Diabrotica balteata): ≥ 80%
Cc1cc2c(cc1NC(=O)N[C@@H](C)c1ncnn1-c1ncccn1)OCC(=O)N2 [Example P208, 1-(6-methyl-3-oxo-4H-1,4-benzoxazin-7-yl)-3-[(1S)-1-(2-pyrimidin-2-yl-1,2,4-triazol-3-yl)ethyl]urea]	–	–	–	–	–	–	mortality at 200 ppm [1]: ≥ 80%
C[C@H](NC(=O)Nc1ccc(F)cc1C#N)c1ncnn1-c1ncccn1 [Example P62, 1-(2-cyano-4-fluoro-phenyl)-3-[(1S)-1-(2-pyrimidin-2-yl-1,2,4-triazol-3-yl)ethyl]urea]	≥ 80%	–	–	–	–	–	mortality at 200 ppm (Myzus persicae [2]): ≥ 80%
C[C@@H](c1ncnn1-c1ncccn1)N1CCN(c2cc(OC(F)(F)C(F)F)c(Cl)cc2Cl)C1=O	–	–	–	–	207 to 209 °C	–	–
CC(NC(=O)Nc1cnc(C(F)(F)F)cc1Cl)c1nccnc1-c1ncccn1 (stereo not shown) [Example P244, 1-[4-chloro-6-(trifluoromethyl)-3-pyridyl]-3-[1-(3-pyrimidin-2-ylpyrazin-2-yl)ethyl]urea]	–	≥ 80%	≥ 80%	≥ 80%	–	≥ 80%	mortality at 200 ppm (Myzus persicae [2]): ≥ 80%; mortality at 24 ppm (Myzus persicae [3]): ≥ 80%
CC(NC(=O)Nc1cc(C(F)(F)F)cc(C(F)(F)F)c1)c1ncnn1-c1ncccn1 (stereo not shown)	–	–	–	–	124 to 127 °C	–	–
C[C@@H](c1ncnn1-c1ncccn1)N(C)C(=O)Nc1cnc(C(F)(F)F)cc1Cl [Example P397, 3-[4-chloro-6-(trifluoromethyl)-3-pyridyl]-1-methyl-1-[(1S)-1-(2-pyrimidin-2-yl-1,2,4-triazol-3-yl)ethyl]urea]	≥ 80%	–	≥ 80%	≥ 80%	–	≥ 80%	mortality at 24 ppm (Myzus persicae [3]): ≥ 80%
C[C@H](NC(=O)Nc1cnc(C(F)(F)F)cc1I)c1ncnn1-c1ncccn1	–	–	–	–	183 to 186 °C	–	–
C[C@H](NC(=S)Nc1cc(Cl)cc(C(F)(F)F)c1)c1ncnn1-c1ncccn1	–	–	–	–	106 to 108 °C	–	–
C[C@H](NC(=O)N(C)c1cnc(C(F)(F)F)cc1Br)c1ncnn1-c1ncccn1 [Example P273, 1-[4-bromo-6-(trifluoromethyl)-3-pyridyl]-1-methyl-3-[(1S)-1-(2-pyrimidin-2-yl-1,2,4-triazol-3-yl)ethyl]urea]	≥ 80%	≥ 80%	≥ 80%	≥ 80%	–	≥ 80%	mortality at 24 ppm (Myzus persicae [3]): ≥ 80%
C[C@@H]1CN(C(=O)c2ccc(-n3ncnc3[C@H](C)NC(=O)Nc3cc(C(F)(F)F)c(Cl)cc3Cl)nc2)C[C@H](C)O1	–	–	–	–	138 to 140 °C	–	–
CC(NC(=O)Nc1ccc(C(F)(F)F)cc1C(F)(F)F)c1ncnn1-c1ncccn1 (stereo not shown) [Example P1, 1-[2,4-bis(trifluoromethyl)phenyl]-3-[1-(2-pyrimidin-2-yl-1,2,4-triazol-3-yl)ethyl]urea]	≥ 80%	≥ 80%	≥ 80%	≥ 80%	–	≥ 80%	percent control (mortality or growth inhibition) at 200 ppm (Diabrotica balteata): ≥ 80%
Cc1cccc(Cl)c1NC(=O)N[C@@H](C)c1ncnn1-c1ncccn1 [Example P71, 1-(2-chloro-6-methyl-phenyl)-3-[(1S)-1-(2-pyrimidin-2-yl-1,2,4-triazol-3-yl)ethyl]urea]	–	–	–	–	–	–	mortality at 200 ppm [1]: ≥ 80%
C[C@H](NC(=O)Nc1cc(OC(F)(F)Cl)c(Cl)cc1F)c1ncnn1-c1ncccn1 [Example P219, 1-[4-chloro-5-[chloro(difluoro)methoxy]-2-fluoro-phenyl]-3-[(1S)-1-(2-pyrimidin-2-yl-1,2,4-triazol-3-yl)ethyl]urea]	–	≥ 80%	≥ 80%	≥ 80%	–	≥ 80%	mortality at 200 ppm [1]: ≥ 80%; percent control (mortality or growth inhibition) at 200 ppm (Diabrotica balteata): ≥ 80%
C[C@H](NC(=O)Nc1ccc(Br)c(Br)c1)c1nccnc1-c1ncccn1	–	–	–	–	220 to 222 °C	–	–
